Structures are written as SMILES.

This test concerns the target T1, recombinant human GR (Homo sapiens, UniProt P04150).
T1 construct: purchased Panvera/Invitrogen P2812 (kit P2893)
T1 sequence (P04150 1-777): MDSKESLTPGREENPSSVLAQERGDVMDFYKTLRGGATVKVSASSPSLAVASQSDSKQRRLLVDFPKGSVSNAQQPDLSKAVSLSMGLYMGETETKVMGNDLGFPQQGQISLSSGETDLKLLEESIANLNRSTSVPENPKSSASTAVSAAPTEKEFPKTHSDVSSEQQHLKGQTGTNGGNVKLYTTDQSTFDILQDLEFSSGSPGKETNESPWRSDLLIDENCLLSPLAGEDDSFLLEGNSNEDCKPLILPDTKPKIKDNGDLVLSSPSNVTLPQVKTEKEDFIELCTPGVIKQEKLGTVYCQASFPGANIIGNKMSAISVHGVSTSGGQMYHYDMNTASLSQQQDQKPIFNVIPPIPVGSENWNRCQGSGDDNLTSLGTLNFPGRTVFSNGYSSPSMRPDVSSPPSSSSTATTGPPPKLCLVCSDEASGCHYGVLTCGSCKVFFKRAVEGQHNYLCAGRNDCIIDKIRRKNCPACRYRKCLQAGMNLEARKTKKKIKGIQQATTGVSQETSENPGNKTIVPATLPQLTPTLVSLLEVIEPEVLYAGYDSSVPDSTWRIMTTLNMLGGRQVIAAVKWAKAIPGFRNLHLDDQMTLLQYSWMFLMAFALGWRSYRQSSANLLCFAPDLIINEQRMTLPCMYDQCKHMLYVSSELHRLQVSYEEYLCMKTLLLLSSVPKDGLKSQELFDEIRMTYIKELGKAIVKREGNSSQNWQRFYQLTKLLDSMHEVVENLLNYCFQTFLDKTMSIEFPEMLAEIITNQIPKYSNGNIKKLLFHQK
The test can be described thus: Human Glucocorticoid Receptor (GR) Assay (fluorescence polarization, Panvera/Invitrogen kit). The test is classed as binding. Particulars: fluorescence polarization; GS Red tracer; 2 hours at room temperature; 100% control 10 μM Dexamethasone; read-out: Inhibition of GR binding, IC50. In a few lines: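 Fluorescence polarization competition with recombinant GR and GS Red fluorescent ligand plus stabilizing peptide and DTT in potassium phosphate/sodium molybdate/EDTA buffer with DMSO. Incubated 2 hours at room temperature in the dark; 0% control DMSO, 100% control 10 μM dexamethasone.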
On to `C[C@]12Cc3cnn(-c4ccc(F)cc4)c3C=C1CC[C@@H]1[C@@H]2[C@@H](O)C[C@@]2(C)[C@H]1CC[C@]2(OC(=O)c1nccs1)C(=O)SCC#N` [Example 39, (1R,3aS,3bS,10aR,10bS,11S,12aS)-1-{[(Cyanomethyl)thio]carbonyl}-7-(4-fluorophenyl)-11-hydroxy-10a,12a-dimethyl-1,2,3,3a,3b,4,5,7,10,10a,10b,11,12,12a-tetradecahydropcyclopenta[5,6]naphtho[1,2-f]indazol-1-yl 1,3-thiazole-2-carboxylate], for which the IC50 came to 3.3 nM.

As for `C[C@]12Cc3cnn(-c4ccc(F)cc4)c3C=C1CC[C@@H]1[C@@H]2[C@@H](O)C[C@@]2(C)[C@H]1CC[C@]2(OC(=O)c1nccs1)C(=O)SCCO` [Example 40, (1R,3aS,3bS,10aR,10bS,11S,12aS)-7-(4-Fluorophenyl)-11-hydroxy-1-{[(2-hydroxy-ethyl)thio]carbonyl}-10a,12a-dimethyl-1,2,3,3a,3b,4,5,7,10,10a,10b,11,12,12a-tetradecahydrocyclopenta[5,6]naphtho[1,2-f]indazol-1-yl 1,3-thiazole-2-carboxylate], the half-maximal inhibitory concentration (IC50) came out at 2.9 nM.

Regarding `C[C@]12Cc3cnn(-c4ccc(F)cc4)c3C=C1CC[C@@H]1[C@@H]2[C@@H](O)C[C@@]2(C)[C@H]1CC[C@]2(OC(=O)c1nccs1)C(=O)SCC#CCO` [Example 41, (1R,3aS,3bS,10aR,10bS,11S,12aS)-7-(4-Fluorophenyl)-11-hydroxy-{[(4-hydroxy-but-2-yn-1-yl)thio]carbonyl}-10a,12a-dimethyl-1,2,3,3a,3b,4,5,7,10,10a,10b,11,12,12a-tetradecahydrocyclopenta[5,6]naphtho[1,2-f]indazol-1-yl 1,3-thiazole-2-carboxylate], the concentration for half-maximal inhibition (IC50) worked out at 4.1 nM.

Regarding `C[C@]12Cc3cnn(-c4ccc(F)cc4)c3C=C1CC[C@@H]1[C@@H]2[C@@H](O)C[C@@]2(C)[C@H]1CC[C@]2(OC(=O)c1nccs1)C(=O)SCF` [Example 42, (1R,3aS,3bS,10aR,10bS,11S,12aS)-1-{[(Fluoromethyl)thio]carbonyl}-7-(4-fluoro-phenyl)-11-hydroxy-10a,12a-dimethyl-1,2,3,3a,3b,4,5,7,10,10a,10b,11,12,12a-tetradecahydrocyclopenta[5,6]naphtho[1,2-f]indazol-1-yl 1,3-thiazole-2-carboxylate], the IC50 was 3.2 nM.

For the molecule `C[C@]12Cc3cnn(-c4ccc(F)cc4)c3C=C1CC[C@@H]1[C@@H]2[C@@H](O)C[C@@]2(C)[C@H]1CC[C@]2(OC(=O)c1cocn1)C(=O)SCC#N` [Example 43, (1R,3aS,3bS,10aR,10bS,11S,12aS)-1-{[(Cyanomethyl)thio]carbonyl}-7-(4-fluoro-phenyl)-11-hydroxy-10a,12a-dimethyl-1,2,3,3a,3b,4,5,7,10,10a,10b,11,12,12a-tetradecahydrocyclopenta[5,6]naphtho[1,2-f]indazol-1-yl 1,3-oxazole-4-carboxylate], the 50% inhibitory concentration (IC50) is 2.7 nM.

Consider `C[C@]12Cc3cnn(-c4ccc(F)cc4)c3C=C1CC[C@@H]1[C@@H]2[C@@H](O)C[C@@]2(C)[C@H]1CC[C@]2(OC(=O)c1cocn1)C(=O)SCCO` [Example 44, (1R,3aS,3bS,10aR,10bS,11S,12aS)-7-(4-Fluorophenyl)-11-hydroxy-1-{[(2-hydroxy-ethyl)thio]carbonyl}-10a,12a-dimethyl-1,2,3,3a,3b,4,5,7,10,10a,10b,11,12,12a-tetradecahydrocyclopenta[5,6]naphtho[1,2-f]indazol-1-yl 1,3-oxazole-4-carboxylate], for which the half-maximal inhibitory concentration (IC50) came out at 2.9 nM.

As for `C[C@]12Cc3cnn(-c4ccc(F)cc4)c3C=C1CC[C@@H]1[C@@H]2[C@@H](O)C[C@@]2(C)[C@H]1CC[C@]2(OC(=O)c1cocn1)C(=O)SCF` [Example 45, (1R,3aS,3bS,10aR,10bS,11S,12aS)-1-{[(Fluoromethyl)thio]carbonyl}-7-(4-fluoro-phenyl)-11-hydroxy-10a,12a-dimethyl-1,2,3,3a,3b,4,5,7,10,10a,10b,11,12,12a-tetradecahydrocyclopenta[5,6]naphtho[1,2-f]indazol-1-yl 1,3-oxazole-4-carboxylate], the concentration for half-maximal inhibition (IC50) was found to be 3.4 nM.

Turning to `CC(=O)CSC(=O)[C@@]1(OC(=O)c2cocn2)CC[C@H]2[C@@H]3CCC4=Cc5c(cnn5-c5ccc(F)cc5)C[C@]4(C)[C@H]3[C@@H](O)C[C@@]21C` [Example 46, (1R,3aS,3bS,10aR,10bS,11S,12aS)-7-(4-Fluorophenyl)-11-hydroxy-10a,12a-dimethyl-1-{[(2-oxopropyl)thio]carbonyl}-1,2,3,3a,3b,4,5,7,10,10a,10b,11,12,12a-tetradecahydropcyclopenta[5,6]naphtho[1,2-f]indazol-1-yl 1,3-oxazole-4-carboxylate], the IC50 turned out to be 3.9 nM.

For `Cn1cc(C(=O)O[C@]2(C(=O)SCC#N)CC[C@H]3[C@@H]4CCC5=Cc6c(cnn6-c6ccc(F)cc6)C[C@]5(C)[C@H]4[C@@H](O)C[C@@]32C)nn1` [Example 47, (1R,3aS,3bS,10aR,10bS,11S,12aS)-1-{[(Cyanomethyl)thio]carbonyl}-7-(4-fluoro-phenyl)-11-hydroxy-10a,12a-dimethyl-1,2,3,3a,3b,4,5,7,10,10a,10b,11,12,12a-tetradecahydrocyclopenta[5,6]naphtho[1,2-f]indazol-1-yl 1-methyl-1H-1,2,3-triazole-4-carboxylate], the concentration for half-maximal inhibition (IC50) amounted to 2.5 nM.

`Cn1cc(C(=O)O[C@]2(C(=O)SCF)CC[C@H]3[C@@H]4CCC5=Cc6c(cnn6-c6ccc(F)cc6)C[C@]5(C)[C@H]4[C@@H](O)C[C@@]32C)nn1` [Example 48, (1R,3aS,3bS,10aR,10bS,11S,12aS)-1-{[(Fluoromethyl)thio]carbonyl}-7-(4-fluoro-phenyl)-11-hydroxy-10a,12a-dimethyl-1,2,3,3a,3b,4,5,7,10,10a,10b,11,12,12a-tetradecahydrocyclopenta[5,6]naphtho[1,2-f]indazol-1-yl 1-methyl-1H-1,2,3-triazole-4-carboxylate]: the IC50 was determined as 4.9 nM.

Consider `Cn1cc(C(=O)O[C@]2(C(=O)SCCO)CC[C@H]3[C@@H]4CCC5=Cc6c(cnn6-c6ccc(F)cc6)C[C@]5(C)[C@H]4[C@@H](O)C[C@@]32C)nn1` [Example 49, (1R,3aS,3bS,10aR,10bS,11S,12aS)-7-(4-Fluorophenyl)-11-hydroxy-1-{[(2-hydroxy-ethyl)thio]carbonyl}-10a,12a-dimethyl-1,2,3,3a,3b,4,5,7,10,10a,10b,11,12,12a-tetradecahydrocyclopenta[5,6]naphtho[1,2-f]indazol-1-yl 1-methyl-1H-1,2,3-triazole-4-carboxylate], for which the IC50 worked out at 3.5 nM.

As for `C[C@]12Cc3cnn(-c4ccc(F)cc4)c3C=C1CC[C@@H]1[C@@H]2[C@@H](O)C[C@@]2(C)[C@H]1CC[C@]2(OC(=O)c1ccoc1)C(=O)SCC#N` [Example 50, (1R,3aS,3bS,10aR,10bS,11S,12aS)-1-{[(Cyanomethyl)thio]carbonyl}-7-(4-fluoro-phenyl)-11-hydroxy-10a,12a-dimethyl-1,2,3,3a,3b,4,5,7,10,10a,10b,11,12,12a-tetradecahydrocyclopenta[5,6]naphtho[1,2-f]indazol-1-yl furan-3-carboxylate], the half-maximal inhibitory concentration (IC50) worked out at 5.8 nM.

As a reminder, the IC50 is the concentration needed to halve the response being measured.
